Values after ≈ are worked out from the molar mass of the structure shown. Like-named read-outs stand apart in the source and are kept apart here.
What was measured:
[1] = system: HIV-1 (NL4-3); test: Anti-HIV activity in MT-4 cells (MTT viability of infected cells); assay type: cell-based; settings: for EC50: Human immunodeficiency virus 1, NL43, MT4, 120 h, read-out: EC50 HIV-1 (NL4-3): effective concentration needed to inhibit 50% HIV-induced cell death, 5 days
Experimental: (§1) Anti-HIV activity and cytotoxicity were evaluated in human MT-4 cells based on viability of cells that have been infected or not infected with HIV-1 following exposure to various concentrations of the test compound according to the procedure previously described. After proliferation for 5 days the number of viable MT-4 cells was quantified by tetrazolium-based colorimetric method (MTT). The HIV-1 NL4-3 virus used was a molecular clone obtained from the National Institute of Health (Bethesda, USA) that was propagated and tittered in MT-4 cells. All anti-HIV evaluations were done in triplicate in two separate experiments.

[2] = Cytotoxicity in non-infected MT-4 cells (MTT); assay type: cell-based, human; settings: human
Experimental: as §1

[3] = system: human MT-4 cells; test: Cytotoxicity in non-infected MT-4 cells (MTT); assay type: cell-based; settings: 5 days
Experimental: as §1

[4] = biological target: T1, electric eel acetylcholinesterase (Electrophorus electricus, UniProt O42275); test: biochemical
T1 construct: purchased Sigma Aldrich Chemie (Stenheim, Germany) type V-S
T1 sequence (O42275 24-633): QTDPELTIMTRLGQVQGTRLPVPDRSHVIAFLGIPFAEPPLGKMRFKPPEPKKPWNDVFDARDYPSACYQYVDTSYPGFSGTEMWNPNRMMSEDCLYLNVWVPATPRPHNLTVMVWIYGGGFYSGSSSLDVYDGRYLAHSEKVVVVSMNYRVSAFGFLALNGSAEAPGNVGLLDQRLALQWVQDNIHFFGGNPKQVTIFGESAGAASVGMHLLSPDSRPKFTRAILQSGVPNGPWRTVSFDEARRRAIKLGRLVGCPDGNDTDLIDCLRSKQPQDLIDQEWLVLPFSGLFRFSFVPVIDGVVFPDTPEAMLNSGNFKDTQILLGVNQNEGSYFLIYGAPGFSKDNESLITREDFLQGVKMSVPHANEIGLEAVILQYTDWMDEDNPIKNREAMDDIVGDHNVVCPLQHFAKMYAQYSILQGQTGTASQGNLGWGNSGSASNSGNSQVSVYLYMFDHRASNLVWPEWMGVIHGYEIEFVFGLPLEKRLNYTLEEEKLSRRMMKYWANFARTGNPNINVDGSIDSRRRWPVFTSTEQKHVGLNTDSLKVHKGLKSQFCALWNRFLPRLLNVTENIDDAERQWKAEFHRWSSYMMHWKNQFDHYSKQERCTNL
Experimental: The assay for measuring acetylcholinesterase (AChE) inhibitory activity was performed in 96 well microtitre plates as previously described. […] Acetylcholinesterase from Electrophorus electricus L. (electric eel) type V-S lyophilized powder, acetyl-thiocholine iodide (ATCI), and 5,5′-dithio-bis[2-nitrobenzoic acid] (DNTB) were obtained from Sigma Aldrich Chemie (Stenheim, Germany). Fifty microliters of AChE solution (500 U/mL) in phosphate buffer (8 mM K2HPO4, 2.3 mM NaH2PO4, 0.15 M NaCl, 0.05% Tween 20, pH 7.6), and 50 μL of the compound dissolved in the same buffer were added to each of the wells. The plates were incubated for 30 min at room temperature before addition of 100 μL of the substrate solution (0.1 M NaH2PO4, […], 0.6 mM ATCI in Millipore water, pH 7.5). Absorbance was recorded in a Labsystems Microplate Reader (Helsinki, Finland) at 405 nm after 6 min. Enzyme activity was calculated as percentage compared to an assay using a buffer without the tested compound. The AChE inhibitory data were analysed with the Prism software package (Graph Pad Inc., San Diego, USA).

[5] = biological target: electric eel acetylcholinesterase; settings: cited from earlier work
[6] = system: human MT4 cells; settings: cited from earlier work
[7] = system: HIV-1; settings: human MT4 cells; cited from earlier work
[8] = in vitro, read-out: EC50, inhibition of electric eel acetylcholinesterase in vitro
[9] = means ± SD of three determinations (10^−8 to 10^−3 M), read-out: EC50 (M), acetylcholinesterase inhibitory activity

c1cc(CN2CCCNCCNCCCNCC2)ccc1CN1CCCNCCNCCCNCC1 [AMD3100, reference compound]
EC50 [1]: 0.001 µg/mL (≈ 0.00199 µM)
CC50 at 5 days [2]: > 5 µg/mL

Cc1cn([C@H]2C[C@H](N=[N+]=[N-])[C@@H](CO)O2)c(=O)[nH]c1=O [AZT, reference compound]
EC50 HIV-1 (NL4-3): effective concentration needed to inhibit 50% HIV-induced cell death ([1]; 5 days): 0.7 ng/mL (≈ 0.00262 µM)
CC50 No virus: concentration needed to induce 50% death of non-infected cells [3]: >1 µg/mL

COC1C=CC23CCN(C)Cc4ccc(O)c(c42)OC3C1 (centres unmarked) [Chlidanthine (1), chlidanthine]
EC50 [1]: > 25 µg/mL
EC50 [4, 8]: 2.4e-05 M
EC50 [4, 9]: 2.41e-05 M
CC50 at 5 days [2]: > 25 µg/mL

COc1ccc2c3c1O[C@H]1C[C@H](O)C=C[C@@]31CCNC2 [Epinorgalanthamine (6), epinorgalanthamine]
EC50 [1]: > 13 µg/mL
CC50 at 5 days [2]: 13 µg/mL (≈ 47.6 µM)
EC50 ([5]; previously reported, read-out: acetylcholinesterase inhibitory properties): 9.6 µM

COc1ccc2c3c1O[C@H]1C[C@@H](O)C=C[C@@]31CCN(C)C2 [Galanthamine (2), galanthamine, reference compound]
EC50 [1]: > 25 µg/mL
CC50 at 5 days [2]: > 25 µg/mL

COc1ccc2c3c1O[C@H]1C[C@@H](O)C=C[C@@]31CC[N+](C)([O-])C2 (some centres unmarked) [Galanthamine N-oxide (3), galanthamine N-oxide]
EC50 [1]: > 25 µg/mL
EC50 [4, 8]: 2.6e-05 M
EC50 [4, 9]: 2.62e-05 M
CC50 at 5 days [2]: > 25 µg/mL

COc1cc2c(cc1O)[C@@H]1[C@H](OC2=O)[C@@H](OC)[C@@H]2O[C@@]23CCN(C)[C@@H]13 [Galwesine (5), galwesine]
EC50 [1]: > 71.4 µg/mL
acetylcholinesterase inhibition in words ([4]; at 10^−3 M): inactive
EC50 [4, 9]: > 0.001 M
CC50 at 5 days [2]: 71.4 µg/mL (≈ 206 µM)

O[C@H]1[C@H]2c3cc4c(cc3CN3CCC(=C[C@@H]1O)[C@H]23)OCO4 [Lycorine (4), lycorine]
EC50 [1]: > 0.5 µg/mL
CC50 at 5 days [2]: 0.48 µg/mL (≈ 1.67 µM)
acetylcholinesterase inhibitory activity in words [5]: inactive
cytotoxicity TC50 [6]: 0.75 µg/mL
anti-HIV-1 activity ID50 [7]: 0.4 µg/mL
therapeutic index TI50 [7]: 1.9

Cc1ccnc2c1NC(=O)c1cccnc1N2C1CC1 [Nevirapine, reference compound]
EC50 [1]: 0.034 µg/mL (≈ 0.128 µM)
CC50 at 5 days [2]: > 2 µg/mL

COc1ccc2c3c1O[C@H]1C[C@H](O)CC[C@@]31CCNC2 [epinorlycoramine]
acetylcholinesterase inhibitory activity in words [5]: completely lost

CO[C@@H]1C=C[C@@]23c4cc5c(cc4CN(C[C@@H]2O)[C@H]3C1)OCO5 [haemanthamine]
therapeutic index TI50 [7]: even lower therapeutic indices than lycorine

COc1cc2c(cc1OC)[C@H]1[C@H]3C(=CC[C@H]1OC2=O)CCN3C [homolycorine]
therapeutic index TI50 [7]: even lower therapeutic indices than lycorine

COc1ccc2c3c1O[C@H]1C[C@@H](O)CC[C@]31CCN(C)C2 [lycoramine]
acetylcholinesterase inhibitory activity in words [5]: completely lost

CN1CC[C@@]23C=C[C@H](O)C[C@@H]2Oc2c(O)ccc(c23)C1 [sanguinine]
increase of the AChE inhibitory activity relative to galanthamine [5]: ~10 fold

c1ccc2c(c1)ncc1cc3c(cc12)OCO3 [trisphaeri-dine, trisphaeridine]
therapeutic index TI50 [7]: even lower therapeutic indices than lycorine

— PMC6264317, “Acetylcholinesterase-inhibiting Alkaloids from Zephyranthes concolor” (Molecules, 2011)
